Test systems include HCT-15 colon; NCI-H23 lung; CAKI-1 renal; OVCAR-3 ovarian; HOP-92 NSCLC; HT29 colon; RPMI-8226 leukemia; DMS 273 small cell lung; K-562 leukemia; HL-60(TB) leukemia.
Experiment in all cases: inhibition of tumour cell growth, NCI panel, 48 h

“And” between values parts separate entries of the source, which are not always exact repeats. Equal entries are not always repeated.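 Grown in 96-well plates, cells were treated for 48 hours with each compound at five concentrations. Insufficient inhibition: endpoint recorded as highest concentration tested. The concentration for 50% growth inhibition is given as GI50. TGI denotes the concentration required for complete inhibition of growth.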

Consider `Cc1ccccc1CN1CC=c2ccccc2=N1`, for which the TGI in the experiment on HCT-15 colon, in the experiment with NCI-H23 lung, with CAKI-1 renal, in the experiment on OVCAR-3 ovarian, with HOP-92 NSCLC and with HT29 colon was greater than 100 µM throughout. The TGI with RPMI-8226 leukemia, with DMS 273 small cell lung and in the experiment on K-562 leukemia was greater than 100 µM in each case.

Consider `CS(=O)(=O)Nc1ccc(Nc2c3ccccc3nc3ccccc23)cc1`, for which the TGI with HCT-15 colon came to 23.5 µM; in the experiment on NCI-H23 lung, 25.8 µM; in the experiment with CAKI-1 renal, 6.94 µM; with OVCAR-3 ovarian it was 18.7 µM; in the experiment on HOP-92 NSCLC it was 24.2 µM; with HT29 colon, 20.5 µM. For the same compound, the TGI with RPMI-8226 leukemia was 31 µM; in the experiment on DMS 273 small cell lung it was 14.3 µM; with K-562 leukemia, 21.2 µM; with HL-60(TB) leukemia, 9.19 µM.

Consider `CCOC(=O)c1cn(Cc2ccccc2)c(=O)n1Cc1ccccc1`, for which the TGI in the experiment with HCT-15 colon, with NCI-H23 lung, in the experiment on CAKI-1 renal, in the experiment on OVCAR-3 ovarian, in the experiment with HOP-92 NSCLC and in the experiment with HT29 colon was greater than 100 µM throughout. In addition, the TGI in the experiment on RPMI-8226 leukemia, with DMS 273 small cell lung, with K-562 leukemia and in the experiment with HL-60(TB) leukemia was greater than 100 µM each time.

For the compound `CC1=C(C(=O)Nc2ccc(Cl)c(Cl)c2)C(c2ccco2)C(C(=O)Nc2ccc(Cl)c(Cl)c2)=C(C)N1`, the TGI in the experiment on HCT-15 colon was 24.3 µM; in the experiment on NCI-H23 lung, 35.2 µM; with CAKI-1 renal, 27.8 µM; in the experiment on OVCAR-3 ovarian it was 20.2 µM; in the experiment on HOP-92 NSCLC, 31.2 µM; in the experiment with HT29 colon it was 29.9 µM. In addition, the TGI was 38.4 µM in the experiment with RPMI-8226 leukemia, 32.7 µM in the experiment on DMS 273 small cell lung, 29 µM with K-562 leukemia and 42.4 µM with HL-60(TB) leukemia.

Turning to `COC(=O)C1=C(CO)C2C=CC1C2` (configuration not stated), the TGI with HCT-15 colon, with NCI-H23 lung, in the experiment with CAKI-1 renal, in the experiment with OVCAR-3 ovarian, with HT29 colon and with RPMI-8226 leukemia was greater than 100 µM in each case. The TGI in the experiment with DMS 273 small cell lung, with K-562 leukemia and in the experiment with HL-60(TB) leukemia was greater than 100 µM each time.

As to `CN(C)CC1(C)CC/C(=C\c2ccccc2)C1=O` (configuration not stated), the TGI with HCT-15 colon, with NCI-H23 lung, in the experiment with CAKI-1 renal, in the experiment with OVCAR-3 ovarian, in the experiment with HOP-92 NSCLC and in the experiment with HT29 colon was greater than 100 µM in each case. Besides, the TGI was 63.2 µM in the experiment with RPMI-8226 leukemia, greater than 100 µM with DMS 273 small cell lung and greater than 100 µM in the experiment with K-562 leukemia.

Turning to `CC(C)(C)c1ccc(C(O)c2ccc(C(C)(C)C)cc2)cc1`, the TGI in the experiment on HCT-15 colon was 24.6 µM; with NCI-H23 lung, 25.5 µM; in the experiment with CAKI-1 renal, 28.4 µM; with OVCAR-3 ovarian, 27.6 µM; with HOP-92 NSCLC, 25.2 µM; in the experiment on HT29 colon it was 22.3 µM. The TGI with DMS 273 small cell lung came to 25.9 µM; with K-562 leukemia, 33.3 µM; in the experiment on HL-60(TB) leukemia, 35.6 µM.

For `O=C1CCC2(CC1)SCCCS2`, the TGI in the experiment on HCT-15 colon, with NCI-H23 lung, in the experiment with CAKI-1 renal, with OVCAR-3 ovarian, in the experiment on HOP-92 NSCLC and in the experiment with HT29 colon was greater than 100 µM throughout. Further, the TGI in the experiment on RPMI-8226 leukemia, in the experiment with DMS 273 small cell lung, with K-562 leukemia and in the experiment on HL-60(TB) leukemia was greater than 100 µM each time.

For `CCCCCCCC/C=C\CCCCCCCC(=O)NCCN(CCN)C(=O)CCCCCCC/C=C\CCCCCCCC`, the TGI in the experiment with HCT-15 colon, with NCI-H23 lung, in the experiment on CAKI-1 renal, in the experiment with OVCAR-3 ovarian, in the experiment with HOP-92 NSCLC and in the experiment with HT29 colon was greater than 100 µM throughout. Further, the TGI in the experiment with RPMI-8226 leukemia, in the experiment with DMS 273 small cell lung, in the experiment with K-562 leukemia and with HL-60(TB) leukemia was greater than 100 µM throughout.

Turning to `NC1=N/C(=C2/CCNC(=O)c3[nH]c(Br)cc32)C(=O)N1`, the TGI is greater than 100 µM with HCT-15 colon; greater than 100 µM with NCI-H23 lung; greater than 100 µM in the experiment with CAKI-1 renal; 43 µM and 40.1 µM in the experiment with OVCAR-3 ovarian; 63.8 µM and 81.5 µM with HOP-92 NSCLC; greater than 100 µM in the experiment on HT29 colon. For the same compound, the TGI in the experiment with RPMI-8226 leukemia was greater than 100 µM; with DMS 273 small cell lung it was greater than 100 µM; in the experiment on K-562 leukemia, greater than 100 µM; in the experiment with HL-60(TB) leukemia, 11.2 µM and 6.94 µM. Also, the GI50 with CAKI-1 renal is > 33.9 µM and 5.68 µM; with OVCAR-3 ovarian, 4.29 µM and 10.7 µM; in the experiment on HT29 colon, 27.2 µM and 67.7 µM; in the experiment on RPMI-8226 leukemia, > 79.9 µM and 15.6 µM.

Consider `COc1ccc(C(c2c(O)c3ccccc3n(C)c2=O)c2c(O)c3ccccc3n(C)c2=O)cc1`, for which the TGI in the experiment on NCI-H23 lung was 66.7 µM; in the experiment with CAKI-1 renal, greater than 100 µM; in the experiment on OVCAR-3 ovarian it was greater than 100 µM; in the experiment with HOP-92 NSCLC it was greater than 100 µM; in the experiment with HT29 colon it was greater than 100 µM; in the experiment with RPMI-8226 leukemia, greater than 100 µM. Besides, the results for the TGI with DMS 273 small cell lung, with K-562 leukemia and in the experiment with HL-60(TB) leukemia were greater than 100 µM, greater than 100 µM and 90.7 µM, respectively.

Consider `O=C1OC(O)C(Oc2ccc(Cl)cc2)=C1Cl` (configuration not stated), for which the TGI with HCT-15 colon, in the experiment on NCI-H23 lung, with CAKI-1 renal, with OVCAR-3 ovarian, in the experiment on HOP-92 NSCLC and with HT29 colon was greater than 100 µM throughout. Further, the TGI in the experiment with RPMI-8226 leukemia, in the experiment with DMS 273 small cell lung, in the experiment on K-562 leukemia and in the experiment with HL-60(TB) leukemia was greater than 100 µM each time.

Take `O=C1C(=O)C(Br)(Br)C(Br)=C1Br`: the TGI was 41.9 µM in the experiment on HCT-15 colon; 34.9 µM in the experiment with CAKI-1 renal; 29.1 µM in the experiment on OVCAR-3 ovarian; 36.7 µM in the experiment on HOP-92 NSCLC; 38.5 µM in the experiment with HT29 colon; 99.5 µM in the experiment on RPMI-8226 leukemia. For the same compound, the TGI in the experiment with DMS 273 small cell lung is 48.1 µM; in the experiment with K-562 leukemia, 41.3 µM; in the experiment with HL-60(TB) leukemia, 38.2 µM.

In the case of `CC1=C(C(=O)NCc2ccccc2)C(c2ccccc2[N+](=O)[O-])C(C(=O)NCc2ccccc2)=C(C)N1`, the TGI amounted to 22.4 µM in the experiment on HCT-15 colon; 25.4 µM with NCI-H23 lung; 50 µM in the experiment on CAKI-1 renal; 19.2 µM in the experiment on OVCAR-3 ovarian; 36.6 µM in the experiment on HOP-92 NSCLC; 28 µM in the experiment with HT29 colon. In addition, the TGI in the experiment with DMS 273 small cell lung is 25.4 µM; in the experiment on K-562 leukemia, 24.8 µM; with HL-60(TB) leukemia, 13.2 µM.

Values taken from PubChem BioAssay (NCI).
